Results taken from ChEMBL document CHEMBL1201862, “PubChem BioAssay data set” (2004).
The source made the active and inactive calls.

Assays:
[1] = non-specific 3'UTR reporter inhibition in Clone20-Shn3RL – cell-based, Renilla luciferase, cherry-picked, counter-screen for Shn3 inhibitor project, dose response (AID 624133); type: functional
[2] = target: Nucleotide-binding oligomerization domain-containing protein 2 (Homo sapiens, UniProt Q9HC29); test: inhibition of NOD2-driven NF-kB reporter – cell-based, luminescence, uHTS, HEK293 (AID 1566); type: functional
Sequence of Nucleotide-binding oligomerization domain-containing protein 2 (Q9HC29 whole entry, the tested form may be a part): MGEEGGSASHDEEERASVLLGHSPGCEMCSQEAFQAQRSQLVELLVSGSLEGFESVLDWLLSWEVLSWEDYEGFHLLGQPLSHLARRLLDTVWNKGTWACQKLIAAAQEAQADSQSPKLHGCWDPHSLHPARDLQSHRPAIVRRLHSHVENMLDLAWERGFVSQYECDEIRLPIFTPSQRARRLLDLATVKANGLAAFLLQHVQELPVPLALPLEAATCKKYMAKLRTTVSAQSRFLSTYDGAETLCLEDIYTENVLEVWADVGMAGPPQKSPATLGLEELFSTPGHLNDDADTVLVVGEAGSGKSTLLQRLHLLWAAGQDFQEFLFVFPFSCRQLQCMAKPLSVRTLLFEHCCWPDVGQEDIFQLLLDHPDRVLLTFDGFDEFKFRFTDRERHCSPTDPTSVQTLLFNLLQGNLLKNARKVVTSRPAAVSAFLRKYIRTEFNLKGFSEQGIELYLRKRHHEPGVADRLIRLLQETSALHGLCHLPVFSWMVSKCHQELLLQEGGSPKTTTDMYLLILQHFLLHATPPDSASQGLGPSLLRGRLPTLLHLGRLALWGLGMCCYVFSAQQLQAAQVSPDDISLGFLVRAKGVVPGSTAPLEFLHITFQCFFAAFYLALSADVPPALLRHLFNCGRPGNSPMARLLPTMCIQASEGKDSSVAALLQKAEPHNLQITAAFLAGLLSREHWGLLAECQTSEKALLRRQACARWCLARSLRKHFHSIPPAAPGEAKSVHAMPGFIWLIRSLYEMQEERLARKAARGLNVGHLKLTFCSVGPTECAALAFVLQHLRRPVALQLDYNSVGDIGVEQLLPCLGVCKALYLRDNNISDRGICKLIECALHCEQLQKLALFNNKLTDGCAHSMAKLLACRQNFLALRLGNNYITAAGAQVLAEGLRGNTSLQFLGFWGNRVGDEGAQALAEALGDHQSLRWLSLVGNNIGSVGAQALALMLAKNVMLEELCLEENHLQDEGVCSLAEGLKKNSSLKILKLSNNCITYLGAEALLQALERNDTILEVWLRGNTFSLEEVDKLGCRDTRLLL

[3] = target: Apelin receptor (Homo sapiens, UniProt P35414); test: apelin receptor antagonists, arrestin read-out – cell-based, luminescent, enzyme-fragment complementation, selectivity assay for CCR6 antagonist project, SAR follow-up (AID 588359); type: functional
Sequence of Apelin receptor (P35414 whole entry, the tested form may be a part): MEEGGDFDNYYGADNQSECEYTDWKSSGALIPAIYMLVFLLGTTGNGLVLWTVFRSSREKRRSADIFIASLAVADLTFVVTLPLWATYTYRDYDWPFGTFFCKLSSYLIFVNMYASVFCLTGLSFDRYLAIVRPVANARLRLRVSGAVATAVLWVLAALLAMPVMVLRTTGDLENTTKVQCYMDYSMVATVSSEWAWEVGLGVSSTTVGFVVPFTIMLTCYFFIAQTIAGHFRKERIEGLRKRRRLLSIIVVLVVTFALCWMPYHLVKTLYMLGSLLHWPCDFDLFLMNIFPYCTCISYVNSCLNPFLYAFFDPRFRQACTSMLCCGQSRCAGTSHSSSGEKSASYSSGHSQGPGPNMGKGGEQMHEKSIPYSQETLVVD

[4] = loss of viability in HepG2 cells – cell-based, CellTiter-Glo, cherry-picked, cytotoxicity control for Shn3 inhibitor project, dose response (AID 624134); type: functional
[5] = target: T1, Replicative DNA helicase DnaB (Mycobacterium tuberculosis, UniProt P9WMR3); test: DnaB intein splicing inhibitors, dose response, biochemical, cell-free fluorescence (AID 449749); type: functional
T1 sequence (P9WMR3 whole entry): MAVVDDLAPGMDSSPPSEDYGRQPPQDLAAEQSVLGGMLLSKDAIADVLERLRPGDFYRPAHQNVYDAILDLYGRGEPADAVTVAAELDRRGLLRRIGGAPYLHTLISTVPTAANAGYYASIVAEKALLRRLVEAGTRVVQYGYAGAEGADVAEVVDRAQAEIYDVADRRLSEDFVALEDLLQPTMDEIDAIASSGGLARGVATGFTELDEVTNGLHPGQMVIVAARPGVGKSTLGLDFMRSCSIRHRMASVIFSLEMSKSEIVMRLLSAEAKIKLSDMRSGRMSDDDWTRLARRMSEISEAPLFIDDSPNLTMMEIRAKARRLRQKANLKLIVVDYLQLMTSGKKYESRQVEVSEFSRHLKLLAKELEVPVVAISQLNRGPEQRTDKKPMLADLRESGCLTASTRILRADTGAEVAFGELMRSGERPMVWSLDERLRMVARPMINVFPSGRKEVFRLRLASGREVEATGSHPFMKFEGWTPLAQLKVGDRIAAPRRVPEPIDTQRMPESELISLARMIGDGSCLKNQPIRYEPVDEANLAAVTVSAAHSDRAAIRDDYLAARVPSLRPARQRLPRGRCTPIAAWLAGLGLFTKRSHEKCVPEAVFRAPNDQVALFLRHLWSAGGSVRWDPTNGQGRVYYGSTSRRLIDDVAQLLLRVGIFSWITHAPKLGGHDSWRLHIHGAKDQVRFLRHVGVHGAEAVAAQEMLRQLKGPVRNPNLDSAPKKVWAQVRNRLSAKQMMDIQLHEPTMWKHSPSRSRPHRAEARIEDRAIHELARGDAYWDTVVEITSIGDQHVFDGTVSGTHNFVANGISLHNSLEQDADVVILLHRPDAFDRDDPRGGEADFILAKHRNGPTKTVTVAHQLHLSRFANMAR

[6] = target: Heat shock protein HSP 90-alpha (Homo sapiens, UniProt P07900); type: functional, organism-based
[7] = target: ATP-binding cassette sub-family B member 6 (Homo sapiens, UniProt Q9NP58); test: ABCB6 transporter inhibitors, porphyrin accumulation, dose response, flow cytometry, K562-ABCB6 cells, cherry pick 02 (AID 624487); type: functional; settings: read-out: EC50_MICROM
[8] = target: T2, Beta Lactamase (Pseudomonas aeruginosa, UniProt Q932Y6); test: BLA reporter interference, concentration series – BLA reporter cells, FRET fluorescence, artefact control for TLR9-MyD88 binding inhibitor project, dose response (AID 588341); type: cell-based;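 also: cell based assay in CHO-K1 cells stably expressing beta-lactamase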
T2 sequence (Q932Y6 whole entry): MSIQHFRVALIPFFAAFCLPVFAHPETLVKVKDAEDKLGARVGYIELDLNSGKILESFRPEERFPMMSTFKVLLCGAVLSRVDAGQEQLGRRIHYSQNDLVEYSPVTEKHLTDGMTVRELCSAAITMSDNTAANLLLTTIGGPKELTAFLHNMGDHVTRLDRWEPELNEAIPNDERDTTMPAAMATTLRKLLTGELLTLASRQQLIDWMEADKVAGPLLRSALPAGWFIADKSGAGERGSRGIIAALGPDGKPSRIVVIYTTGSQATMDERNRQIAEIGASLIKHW

[9] = target: Beta-galactosidase (Escherichia coli, UniProt Q8VNN2); test: detection-enzyme interference by beta-gal modulators – biochemical, E. coli enzyme, set 3, artefact control for CCR6 antagonist project, dose response (AID 504712); type: functional
[10] = test system: CHO; test: CHO cell viability loss, potency – luminescence, cytotoxicity control for TLR9-MyD88 binding inhibitor project, dose response (AID 588339); type: functional, cell-based, hamster; settings: Cricetulus griseus;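 also: CHO cells stably coexpressing TLR9 and MyD88 fusions from primary screen; compound exposure lasted 48 hours before viability readout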
[11] = target: T3, Protein RecA (Mycobacterium tuberculosis, UniProt P9WHJ3); test: Fluorescence Cell-Free Homogeneous Dose Retest to Identify Inhibitors of RecA-Intein Splicing Activity. [Related pubchem assays (depositor defined):AID2097, AID2223, AID489010, AID492950]; type: functional
T3 sequence (P9WHJ3 whole entry): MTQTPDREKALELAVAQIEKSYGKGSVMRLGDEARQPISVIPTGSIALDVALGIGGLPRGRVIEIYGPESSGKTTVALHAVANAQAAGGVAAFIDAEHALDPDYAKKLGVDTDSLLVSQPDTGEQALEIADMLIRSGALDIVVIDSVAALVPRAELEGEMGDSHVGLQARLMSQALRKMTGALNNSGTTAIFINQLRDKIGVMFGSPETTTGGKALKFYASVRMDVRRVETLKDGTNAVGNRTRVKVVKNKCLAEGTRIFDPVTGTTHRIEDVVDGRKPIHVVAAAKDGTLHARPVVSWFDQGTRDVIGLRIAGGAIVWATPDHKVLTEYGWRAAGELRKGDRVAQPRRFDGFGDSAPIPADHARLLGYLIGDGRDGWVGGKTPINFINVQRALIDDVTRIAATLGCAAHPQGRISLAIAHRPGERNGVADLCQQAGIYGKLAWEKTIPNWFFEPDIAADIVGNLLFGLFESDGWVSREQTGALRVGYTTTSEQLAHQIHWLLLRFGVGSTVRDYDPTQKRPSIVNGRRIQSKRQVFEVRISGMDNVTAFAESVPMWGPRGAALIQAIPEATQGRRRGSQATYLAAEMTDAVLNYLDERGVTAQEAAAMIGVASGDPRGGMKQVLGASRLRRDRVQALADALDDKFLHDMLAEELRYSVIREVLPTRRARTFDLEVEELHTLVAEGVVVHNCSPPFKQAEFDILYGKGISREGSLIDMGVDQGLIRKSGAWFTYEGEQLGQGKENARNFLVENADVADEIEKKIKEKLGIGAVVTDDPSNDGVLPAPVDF

[12] = test system: HEK293; test: inhibition of NOD1-driven NF-kB reporter – cell-based, luminescence, uHTS, primary screen (AID 1578); type: functional; settings: Homo sapiens
[13] = reduction of Shn3 3'UTR-driven luciferase in osteoblasts – cell-based, Clone20 osteoblasts, firefly luciferase, cherry-picked, dose response (AID 624132); type: functional;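 also: firefly luciferase luminescence from reporter carrying the Shn3 3'UTR in osteoblasts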
[14] = test system: HEK293; test: cells; type: functional, cell-based; settings: Homo sapiens
[15] = Luminescence Cell-Based Dose Retest to Confirm Inhibitors of Cancer Stem Cells. [Related pubchem assays (depositor defined):AID2717, AID2721]; type: functional; settings: Homo sapiens
[16] = test system: HEK293; test: NOD2 signaling inhibitors in MDP-stimulated cells, cell-based, uHTS, luminescence (AID 2001); type: functional; settings: Homo sapiens
[17] = target: Broad substrate specificity ATP-binding cassette transporter ABCG2 (Homo sapiens, UniProt Q9UNQ0); test: blockers of JC-1 export by ABCG2 – Ig-MXP3 cells, flow cytometry, dose response (AID 1690); type: functional
[18] = target: ATP-dependent translocase ABCB1 (Homo sapiens, UniProt P08183); test: inhibition of P-gp mediated JC-1 efflux – Jurkat-DNR cells, flow cytometry, dose response (AID 1689); type: functional
[19] = target: T4, Streptokinase A (Streptococcus pyogenes serotype M1, UniProt P10520); test: viability-normalized secreted streptokinase activity reduction – plasminogen activation absorbance, OD405, dose response (AID 1914); type: functional, Streptococcus pyogenes M1 GAS;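 also: secreted streptokinase activity via plasminogen activation per viability signal from cell pellet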
T4 sequence (P10520 whole entry): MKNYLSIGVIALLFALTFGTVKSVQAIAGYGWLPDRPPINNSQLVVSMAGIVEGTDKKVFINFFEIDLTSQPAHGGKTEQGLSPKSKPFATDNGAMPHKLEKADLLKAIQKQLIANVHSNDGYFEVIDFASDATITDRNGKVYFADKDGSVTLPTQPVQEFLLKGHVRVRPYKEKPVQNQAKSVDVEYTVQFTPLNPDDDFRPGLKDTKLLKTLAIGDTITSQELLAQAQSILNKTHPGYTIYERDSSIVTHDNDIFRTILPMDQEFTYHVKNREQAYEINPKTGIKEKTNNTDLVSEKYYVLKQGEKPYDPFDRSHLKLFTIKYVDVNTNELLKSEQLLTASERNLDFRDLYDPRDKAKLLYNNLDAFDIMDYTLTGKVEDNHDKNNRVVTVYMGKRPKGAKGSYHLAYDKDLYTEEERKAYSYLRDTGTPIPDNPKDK

[20] = target: UDP-galactopyranose mutase (Mycobacterium tuberculosis, UniProt P9WIQ1); test: Inhibitors of Mycobacterium tuberculosis UDP-galactopyranose mutase (UGM) enzyme Measured in Biochemical System Using Plate Reader - 2105-02_Inhibitor_Dose_CherryPick_Activity. [Related pubchem assays (depositor defined):AID504439]
[21] = test system: Streptococcus sp. 'group A'; test: Streptococcus pyogenes SK(-)GAS viability under kanamycin – luminescence, BacTiterGlo, confirmation, counter-screen for streptokinase expression inhibitor project, dose response (AID 1900); type: functional, organism-based
[22] = target: Beta-lactamase (Salmonella choleraesuis (strain SC-B67), UniProt Q5J463)
Sequence of Beta-lactamase (Salmonella choleraesuis (strain SC-B67), UniProt Q5J463) (Q5J463 whole entry): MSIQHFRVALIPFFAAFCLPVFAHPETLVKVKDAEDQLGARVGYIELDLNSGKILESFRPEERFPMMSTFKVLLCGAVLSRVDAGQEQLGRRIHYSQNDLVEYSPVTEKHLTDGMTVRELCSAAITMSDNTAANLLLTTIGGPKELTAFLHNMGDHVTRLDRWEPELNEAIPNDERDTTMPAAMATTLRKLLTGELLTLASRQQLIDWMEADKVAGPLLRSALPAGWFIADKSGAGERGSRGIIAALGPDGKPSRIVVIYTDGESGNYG

[23] = test system: Streptococcus; test: GAS UMAA2166 growth inhibition – luminescence, BacTiterGlo, counter-screen for streptokinase expression inhibitor project, dose response (AID 1915); type: functional, organism-based;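 also: potency for reduction of bacterial viability or growth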
[24] = target: T2, Beta Lactamase
[25] = target: Voltage-dependent T-type calcium channel subunit alpha-1H (Homo sapiens, UniProt O95180); type: functional;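 also: channel activity triggered by adding a high calcium stimulation buffer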
Sequence of Voltage-dependent T-type calcium channel subunit alpha-1H (O95180 whole entry): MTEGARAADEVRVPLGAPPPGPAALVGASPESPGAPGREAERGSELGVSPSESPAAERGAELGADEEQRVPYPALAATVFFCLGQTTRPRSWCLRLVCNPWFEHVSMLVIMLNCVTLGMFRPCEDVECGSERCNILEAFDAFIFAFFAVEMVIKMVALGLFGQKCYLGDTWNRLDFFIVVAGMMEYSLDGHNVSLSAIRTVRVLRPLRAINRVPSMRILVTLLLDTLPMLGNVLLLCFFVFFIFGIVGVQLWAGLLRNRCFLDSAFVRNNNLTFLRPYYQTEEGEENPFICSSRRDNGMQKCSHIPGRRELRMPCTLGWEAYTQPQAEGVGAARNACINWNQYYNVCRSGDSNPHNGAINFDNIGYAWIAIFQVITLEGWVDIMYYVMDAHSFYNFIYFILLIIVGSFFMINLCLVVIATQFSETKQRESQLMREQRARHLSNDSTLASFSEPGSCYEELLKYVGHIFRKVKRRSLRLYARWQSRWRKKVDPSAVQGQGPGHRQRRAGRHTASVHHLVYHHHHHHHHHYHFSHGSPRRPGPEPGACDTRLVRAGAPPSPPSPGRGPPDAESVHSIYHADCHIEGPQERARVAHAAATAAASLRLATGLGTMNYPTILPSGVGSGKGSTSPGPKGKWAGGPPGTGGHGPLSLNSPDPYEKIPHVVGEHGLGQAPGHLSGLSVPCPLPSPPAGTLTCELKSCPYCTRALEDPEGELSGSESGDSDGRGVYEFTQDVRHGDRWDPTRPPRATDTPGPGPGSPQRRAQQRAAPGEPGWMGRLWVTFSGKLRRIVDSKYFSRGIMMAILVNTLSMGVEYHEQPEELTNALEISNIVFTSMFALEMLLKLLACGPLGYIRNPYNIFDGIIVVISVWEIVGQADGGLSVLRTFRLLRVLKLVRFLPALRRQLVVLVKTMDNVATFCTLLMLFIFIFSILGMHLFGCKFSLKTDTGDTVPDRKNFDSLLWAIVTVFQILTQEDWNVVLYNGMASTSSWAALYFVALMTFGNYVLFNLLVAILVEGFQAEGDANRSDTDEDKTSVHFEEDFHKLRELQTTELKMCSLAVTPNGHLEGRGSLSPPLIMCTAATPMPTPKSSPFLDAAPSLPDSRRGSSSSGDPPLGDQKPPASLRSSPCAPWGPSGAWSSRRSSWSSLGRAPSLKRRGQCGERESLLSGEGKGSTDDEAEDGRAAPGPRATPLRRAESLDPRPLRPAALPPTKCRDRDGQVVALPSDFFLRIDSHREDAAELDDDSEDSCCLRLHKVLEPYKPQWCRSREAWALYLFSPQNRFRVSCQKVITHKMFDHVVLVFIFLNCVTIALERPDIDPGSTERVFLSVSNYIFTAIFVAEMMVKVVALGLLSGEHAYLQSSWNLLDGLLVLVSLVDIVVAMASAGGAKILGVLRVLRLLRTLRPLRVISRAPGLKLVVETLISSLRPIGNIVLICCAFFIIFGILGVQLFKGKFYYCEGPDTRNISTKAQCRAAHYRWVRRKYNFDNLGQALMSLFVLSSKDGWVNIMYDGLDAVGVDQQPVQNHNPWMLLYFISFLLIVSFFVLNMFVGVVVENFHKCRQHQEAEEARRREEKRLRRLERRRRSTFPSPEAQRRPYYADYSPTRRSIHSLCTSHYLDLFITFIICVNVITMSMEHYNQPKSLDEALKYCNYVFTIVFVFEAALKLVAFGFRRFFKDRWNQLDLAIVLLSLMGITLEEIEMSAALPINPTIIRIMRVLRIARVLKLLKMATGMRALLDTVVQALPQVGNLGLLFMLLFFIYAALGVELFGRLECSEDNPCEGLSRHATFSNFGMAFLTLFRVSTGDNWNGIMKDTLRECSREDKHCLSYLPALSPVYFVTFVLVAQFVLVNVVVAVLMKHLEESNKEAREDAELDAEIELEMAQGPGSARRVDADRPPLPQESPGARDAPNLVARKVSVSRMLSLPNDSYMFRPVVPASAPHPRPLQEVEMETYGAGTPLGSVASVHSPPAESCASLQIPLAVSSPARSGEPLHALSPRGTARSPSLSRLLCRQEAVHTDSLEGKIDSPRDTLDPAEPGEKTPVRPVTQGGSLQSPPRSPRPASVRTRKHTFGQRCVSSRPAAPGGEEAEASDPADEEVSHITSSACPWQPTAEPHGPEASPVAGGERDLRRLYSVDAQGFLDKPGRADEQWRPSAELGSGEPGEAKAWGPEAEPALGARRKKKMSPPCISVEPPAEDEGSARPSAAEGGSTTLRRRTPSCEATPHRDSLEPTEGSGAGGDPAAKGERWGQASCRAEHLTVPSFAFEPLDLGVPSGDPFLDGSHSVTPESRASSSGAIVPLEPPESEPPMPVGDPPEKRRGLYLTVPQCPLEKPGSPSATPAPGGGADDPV

[26] = target: T5, ORF 73 (Human herpesvirus 8, UniProt O40947); test: KSHV LANA DNA-binding disruption – biochemical, fluorescence polarization, cherry-picked samples, dose response (AID 504725); parameters: species or system Human gammaherpesvirus 8;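 also: fluorescence polarization of a labeled DNA duplex reporting LANA DNA binding; potency is for inhibitors that block LANA binding to the DNA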
T5 sequence (O40947 whole entry): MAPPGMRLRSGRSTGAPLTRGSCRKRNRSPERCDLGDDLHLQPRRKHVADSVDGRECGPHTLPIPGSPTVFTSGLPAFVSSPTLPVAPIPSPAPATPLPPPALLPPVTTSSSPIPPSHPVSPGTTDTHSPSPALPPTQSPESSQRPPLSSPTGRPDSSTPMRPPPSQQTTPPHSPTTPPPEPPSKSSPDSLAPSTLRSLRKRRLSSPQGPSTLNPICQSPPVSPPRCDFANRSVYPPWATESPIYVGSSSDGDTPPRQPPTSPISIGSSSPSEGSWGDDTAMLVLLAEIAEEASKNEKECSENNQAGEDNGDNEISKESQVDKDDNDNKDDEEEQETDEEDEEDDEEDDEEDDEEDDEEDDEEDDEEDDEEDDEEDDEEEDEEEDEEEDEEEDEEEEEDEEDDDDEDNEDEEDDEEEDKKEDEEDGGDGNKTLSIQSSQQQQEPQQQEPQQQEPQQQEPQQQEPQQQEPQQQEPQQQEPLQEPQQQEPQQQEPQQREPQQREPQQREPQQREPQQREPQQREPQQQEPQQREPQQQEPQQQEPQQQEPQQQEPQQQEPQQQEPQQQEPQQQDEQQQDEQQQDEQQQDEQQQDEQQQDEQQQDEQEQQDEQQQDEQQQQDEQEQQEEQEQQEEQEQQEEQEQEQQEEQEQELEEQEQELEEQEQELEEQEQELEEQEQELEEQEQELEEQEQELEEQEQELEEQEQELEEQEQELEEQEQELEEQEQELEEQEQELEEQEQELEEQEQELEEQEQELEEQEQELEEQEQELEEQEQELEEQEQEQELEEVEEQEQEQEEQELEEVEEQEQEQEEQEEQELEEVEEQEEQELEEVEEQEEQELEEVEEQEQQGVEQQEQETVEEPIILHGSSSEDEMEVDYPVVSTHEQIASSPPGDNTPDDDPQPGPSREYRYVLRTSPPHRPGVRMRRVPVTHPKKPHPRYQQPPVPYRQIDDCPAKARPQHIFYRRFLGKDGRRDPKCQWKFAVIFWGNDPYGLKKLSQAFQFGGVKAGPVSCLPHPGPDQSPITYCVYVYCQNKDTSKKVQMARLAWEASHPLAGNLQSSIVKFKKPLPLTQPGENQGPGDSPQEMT

[27] = target: Beta-lactamase (Pseudomonas aeruginosa, UniProt Q79MP6);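 also: biochemical dose-response test of metallo-beta-lactamase enzyme inhibition, read out by epi-absorbance; purified recombinant IMP-1 metallo-beta-lactamase with nitrocefin as substrate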
Sequence of Beta-lactamase (Pseudomonas aeruginosa, UniProt Q79MP6) (Q79MP6 whole entry): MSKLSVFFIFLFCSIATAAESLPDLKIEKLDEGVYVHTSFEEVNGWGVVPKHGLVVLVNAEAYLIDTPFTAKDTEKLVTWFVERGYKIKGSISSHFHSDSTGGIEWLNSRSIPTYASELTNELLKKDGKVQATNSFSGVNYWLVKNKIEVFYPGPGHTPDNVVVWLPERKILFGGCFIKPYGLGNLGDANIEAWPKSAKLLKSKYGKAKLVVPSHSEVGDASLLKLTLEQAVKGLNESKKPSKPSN

[28] = target: T6, Beta-2 adrenergic receptor (Homo sapiens, UniProt P07550); test: ADRB2 activation measured by internalization – cell-based, FAP fluorogen, flow cytometry, cherry pick 1, dose response (AID 588763); type: functional
T6 sequence (P07550 whole entry): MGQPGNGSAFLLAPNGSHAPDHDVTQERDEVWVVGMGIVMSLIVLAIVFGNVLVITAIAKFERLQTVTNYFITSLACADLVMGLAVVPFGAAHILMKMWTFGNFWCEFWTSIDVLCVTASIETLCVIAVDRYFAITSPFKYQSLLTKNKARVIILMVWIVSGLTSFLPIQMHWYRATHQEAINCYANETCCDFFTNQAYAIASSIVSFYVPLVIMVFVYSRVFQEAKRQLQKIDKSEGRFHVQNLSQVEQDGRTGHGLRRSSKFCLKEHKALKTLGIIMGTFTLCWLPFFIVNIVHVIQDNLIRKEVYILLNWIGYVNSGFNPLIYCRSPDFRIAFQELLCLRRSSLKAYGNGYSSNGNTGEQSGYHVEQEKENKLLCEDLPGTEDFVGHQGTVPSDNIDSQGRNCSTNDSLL

[29] = target: T6, Beta-2 adrenergic receptor; test: Dose response for HTS for Beta-2AR agonists via FAP method from Powderset1.; type: functional
[30] = test system: HeLa; test: viability loss in HeLa cells – cell-based, ATP luminescence, cherry-pick samples, cytotoxicity control, dose response (AID 687004); type: functional; settings: Homo sapiens
[31] = test system: A549; test: viability loss in A549 cells – cell-based, plate reader, cherry-pick samples, cytotoxicity control, dose response (AID 687028); type: functional; settings: Homo sapiens

Cc1ccccc1CS(=O)(=O)c1ncc(Cl)c(C(=O)Nc2ccc(F)cc2)n1
AC50 [1]: 11.5 µM (active)
EC50 [2]: > 20 µM (inactive)
IC50 [3]: 19.7 µM (active)
AC50 [4]: 40.4 µM (active)
AC50 [5]: 1.22 µM (active)
AC50 [6]: 2.41 µM (active)
EC50 [7]: 30.5 µM (active)
IC50 [8]: 6.25 µM (active)
IC50 [9]: > 66.6 µM (inactive)
IC50 [10]: 4.01 µM (active)
EC50 [11]: 2.79 µM (active)
EC50 [12]: 8.92 µM (active)
AC50 [13]: 3 µM (active)
IC50 [14]: > 20 µM (inactive)
AC50 [15]: 2.2 µM (active)
IC50 [16]: 10 µM (inactive)

CCOc1ccc(NC(=O)c2cccc3c2C(=O)N(CCOC)C3)cc1
EC50 [17]: 1.6 µM (active)
EC50 [18]: 8.31 µM (inactive)

CN1C(=O)/C(=N\CCc2ccccc2)c2c3ccccc3c(O)c3cccc1c23
EC50 [19]: > 150 µM (not active)
AC50 [20]: 0.73 µM (active)
EC50 [21]: 11.3 µM (active)
IC50 [22]: 2.19 µM (active)
EC50 [23]: > 150 µM (not active)
IC50 [8]: 5.98 µM (active)
IC50 [10]: > 49.8 µM (inactive)
IC50 [24]: 9.24 µM (active)
EC50 [25]: 1.6 µM (active)
AC50 [26]: 0.902 µM (active)
IC50 [27]: 11.5 µM (inactive)

CCc1ccc(CN2CCC(Oc3ccc(C(=O)N4CCCCC4)cc3)CC2)cc1
EC50 [28]: 1.75 µM (active)
EC50 [29]: 1.83 µM (active)

CC(C)NC(=O)Nc1ccc2c(c1)CC(=O)N([C@@H](C)CO)C[C@@H](C)[C@@H](CN(C)Cc1ccc(Oc3ccccc3)cc1)O2
AC50 [30]: 38.8 µM (active)

Cc1ccc(S(=O)(=O)N(C)C[C@@H]2OCCCC[C@H](C)Oc3ccc(NS(=O)(=O)c4c(C)noc4C)cc3C(=O)N([C@H](C)CO)C[C@@H]2C)cc1
AC50 [31]: 25.1 µM (active)
